Entries after “also recorded” stand apart in the source; their conditions may differ.
Tests used:
Format in all cases: cell-based, human
[1] = tested on: NPC patient-derived skin fibroblasts; assay: Amplex red cholesterol assay (free cholesterol)
Excerpt: Free cholesterol accumulation in cells is a hallmark of NPC disease. The Amplex red cholesterol assay was used to screen an approved drug library in the NPC patient-derived skin fibroblasts that have free cholesterol accumulation in late endosome and lysosome. […] We then show δ-tocopherol in the filipin cholesterol staining assay, a method used clinically for NPCD diagnosis. […] Lysosome size is usually enlarged in the NPCD cells using a lysotracker staining assay.
The free cholesterol level in these cells was then measured by a cholesterol oxidase coupled HRP/amplex red detection method with a commercial available kit (Invitrogen). The cells were seeded to black, tissue culture-treated 1536-well plates (Greiner Bio-One, Monroe, N.C.) at 800 cells/well in 5 μl medium by a Multidrop Combi dispenser (Thermo Scientific, Waltham, Mass.) and cultured for 24 hours. The assay plates were added with 23 nl/well of compound DMSO solution using a pintool station (Kalypsys, San Diego, Calif.) and cultured for 3 days. The 1536-well assay plate was washed by a plate-inverted centrifugation method that removing medium by centrifuging plates upside down against a stack of paper towel at 1000 rpm for 1 min followed by addition of 7 μl/well PBS buffer, repeating for two times. The PBS buffer was added with a 45 degree angled dispenser (Kalypsys) or a Multi-Drop Combi dispenser set at medium speed to reduce disturbance to the cells. After the cell wash, 2.5 μl/well of detection mixture from the kit was added followed by 1 hour incubation at 37° C. With the addition of the detection mixture, the cells were lysed by the detergent containing buffer and free cholesterols in cell lysate were oxidized by cholesterol oxidase to produce H2O2 which reacting with amplex red dye in the presence of horseradish peroxidase to yield red fluorescence signal. A ViewLux plate reader (PerkinElmer, Boston, Mass.) was used to measure the fluorescent signal in assay plates with the excitation of 573 nm and emissions of 610 nm.

NPC cells = tested on: NPC cells
Method: We disclose that the compound's cytotoxicity could interfere with these cell-based assays that often appeared as the false positives for cholesterol reduction and lysosome size decrease. […] Although the tocotrienol effect on these NPCD cells were observed, they were more toxic in our assays and the additional compound purification (to 99%).
To measure the cytotoxicity of compounds, an ATP content assay was used with a commercial assay kit (ATP-Lite, PerkinElmer). Cells were seeded in white solid 1536-well plates and treated with compounds same as in the cholesterol oxidase assay describe above. After 3-day compound treatment, 3 μl/well detection mixture (prepared according to the manufacturer's instructions) was added to each well and the plates were incubated for 10 min at room temperature followed by a measurement using a Viewlux plate reader in a luminescence mode. The buffer in the detection mixture lyses cells and releases cellular ATP which reacts with luciferin in the presence of luciferase to produce light. The luminescence signal reduces if the cells are killed by the compound during the 3-day treatment.

neuron-like NPCD cells = assay: Filipin staining co-stained with neuronal beta III tubulin; details: neuron-like cells differentiated from NPCD patient MSC
Method: The adipose mesenchymal stem cells (HMSC.AD-100, HMSC-NPC22 and HMSC-NPC23) were isolated from two NPC patients as well as one heath individual and provided by Celleng-tech (Coralville, Iowa). These cells were maintained in MSC expansion media (Celleng-tech, cat# HMSC.E.Media-450) supplemented with 10% FBS 100 unit/ml penicillin and 100 μg/ml streptomycin at 5% CO2, 37° C. For neural differentiation, cells were initially plated at 30% confluency (˜2500 cells/cm^2) using MSC expansion media. After 24 hours, MSC expansion media were withdrew. Cells were washed twice with Dulbecco's phosphate Buffer saline (Invitrogen) and incubated with neural differentiation media (Celleng-tech, cat# NEU.D.Media-450) supplemented with 10% FBS, 100 unit/ml penicillin and 100 μg/ml streptomycin at 5% CO2, 37° C. for additional 3 days.
MSC cells were seeded on coverslips on day 0 in MSC expansion medium. On day 1, cells were washed twice with warm PBS buffer and then incubated with MSC neuronal differentiation medium. On day 4, media were replaced with fresh neuronal differentiation medium. On day 6, cells were fixed with 3.2% paraformaldehyde in HBSS for 15 min. Immunocytochemistry for neuronal beta III tubulin and unesterified cholesterol (filipin staining) was performed as described. The coverslips were examined y a XXX microscope. […]

wild type cells = assay: Lipid measurement by mass spectrometry (GC/MS)
Method: (§1) Effects of δ-tocopherol and α-tocopherols on (FIG. 4A) free cholesterol, (FIG. 4B) cholesterol ester and (FIG. 4C) sphingomyelin in NPC cells. NPC or WT cells were treated with DMSO, 80 μM α-tocopherol or 40 uM δ-tocopherol for 5 days. Cell pellets were collected and extracted for lipids. FC EC and sphingomyelin levels were measured by GC/MS. (FIG. 4D) Effects of δ-tocopherols and α-tocopherols on cholesterol efflux.
(§2) Cell pellets were collected from 100-mm dishes and washed once with 10 ml PBS. Proteins were assayed using the BCA kit (Sigma-Aldrich) and lipids were extracted by modified Bligh and Dyer procedure (29) from the cells. Internal standards were added based on protein concentration that included N12:0 sphingomyelin, D7-cholesterol, 17:0 cholesterol ester (Avanti Polar Lipids, Inc). A portion of the lipid extract was used for detection of sphingomyelins using direct infusion mass spectrometric assay with lithium hydroxide for facilitating ionization and the rest was used to convert cholesterol and its ester into acetate by derivatization. The derivatization was performed by treating the dried crude lipid extract with solutions of 1 M acetic acid with 1 M DMAP in chloroform and 1 M EDC in chloroform at 50° C. for 2 hours. The derivatized product was extracted with hexane and analyzed by direct infusion mass spectrometric assay with 5% ammonium hydroxide for facilitating ionization.
(§3) A triple-quadrupole mass spectrometer equipped with an electrospray was used for analysis of lipids in positive mode. Sphingomyelins, cholesterol and cholesterol esters were detected by neutral loss scan of 213 (collision energy: 50 V), neutral loss scan of 77 (collision energy: 14 V) and precursor ion scan of m/z 369 (collision energy: 14 V) respectively. Data processing of mass spectrometric analyses including ion peak selection, data transferring, peak intensity comparison and quantitation was conducted using self-programmed Microsoft Excel macros (30).

NPC fibroblasts = assay: Lipid measurement by mass spectrometry (GC/MS); details: 80 μM α-tocopherol or 40 uM δ-tocopherol for 5 days
Method: as §1, §2, §3

[2] = tested on: Niemann Pick type A disease fibroblasts; assay: Lysotracker staining assay
[3] = 9 additional fibroblast primary cells from different NPCD patients
[4] = wild type cells, 80 μM α-tocopherol or 40 uM δ-tocopherol for 5 days

In the case of `Cc1cc(O)cc2c1O[C@](C)(CCC[C@H](C)CCC[C@H](C)CCCC(C)C)CC2` [δ-tocopherol], the “effect compared with α-tocopherol” value [1, 3] is reported as “more potent than that of α-tocopherol”, the “effect on cholesterol reduction” value [1, 3] is reported as “confirmed” and the “cholesterol amount (cholesterol reduction)” value ([1]; NPCD fibroblasts) is reported as “significantly reduced”. The “potency compared with the other vitamin E isoforms” value ([1]; free cholesterol amount, filipin staining, lysotracker staining, NPCD fibroblasts) was “most potent of the eight isoforms of vitamin E; also recorded: more significant and potent than any of the other vitamin E isoforms”, the “effect compared with α-tocopherol” value ([1]; δ-tocopherol at 40 μM, NPC fibroblasts) was “more potent than α-tocopherol at 80 μM” and the cytotoxicity (NPC cells) was “not present”. For the same compound, the cholesterol accumulation (neuron-like NPCD cells) was “significant reduction”, the free cholesterol level (wild type cells; normal (WT) cells, 5 days) was “reduced slightly” and the “amount of cholesterol ester” value (wild type cells; [4]) was “significantly reduced”. For the same compound, the sphingomyelin amount (wild type cells; [4]) was “not significantly changed”, the “amount of cholesterol ester” value (NPC fibroblasts; NPCD cells) was “significantly reduced” and the sphingomyelin amount (NPC fibroblasts; NPCD cells) was “not significantly changed”. For the same compound, the free cholesterol level (NPC fibroblasts; NPCD fibroblasts) was “nearly recovered to the normal level as in the wild type cells” and the “size of enlarged lysosomes” value [2] was “significantly reduced”.

Source: patent publication US10039741B2, “Use of delta tocopherol for the treatment of lysosomal storage disorders” (The United States of America, as represented by the …, priority 2010, dated 2018)
